Laboratory results: patent publication US20240130675A1, “Methods for Treating Autism Spectrum Disorder” (The General Hospital Corporation, priority 2021, published 2024)

How the values were obtained:
youth with ASD [1] = experiment: 12-week RCT: safety and tolerability (treatment-emergent AEs, vital signs, early terminations, rescue medication); format: in vivo, human
Protocol: This study was a 12-week, randomized, double-blind, placebo-controlled, parallel group clinical trial of memantine in youth with ASD. Youth with ASD who met the eligibility criteria were randomized to receive either memantine or placebo during the course of the 12-week trial. Participants underwent multimodal MRI scans prior to and upon completion of the 12-week trial. Participants were assessed weekly during the titration phase (baseline to Week 4) and at midpoint (Week 6), Week 9, and completion (Week 12) during the maintenance phase. At each study visit, safety and efficacy were assessed by administering measures of efficacy (CGI, GAF), tolerability (assessing treatment-emergent AEs), and safety (vital signs, including weight). At baseline, midpoint, and endpoint (completion/early termination) severity of autism was assessed by administering measures of autism severity (SRS-2, ABC-SW, CY-BOCS-PDD) and associated psychopathology (ADHD-RS, CDRS-R, CASI-ANX).
Safety and tolerability of memantine was monitored by administering a complete physical examination, battery of blood tests (complete blood count, electrolytes, liver function test, thyroid function test, and random glucose levels), Urine tests (drug screen and pregnancy screen [women of child-bearing potential only]), and EKG at baseline and endpoint of the trial, and by recording treatment-emergent AEs and obtaining vital signs (pulse, blood pressure, weight) at each study visit.
Safety results were summarized descriptively by treatment group and baseline glutamate activity level (high versus normal) and compared at the end of the study using Fisher's exact or Pearson's chi-square tests. All analyses were performed using Stata (Version 16) (StataCorp, Stata Statistical Software: Release 16. College Station, TX: StataCorp LLC. 2019).

youth with ASD [2] = experiment: Treatment response based on baseline PgACC glutamate activity (high vs normal; treatment group-by-glutamate-by-visit interaction); format: in vivo, human; settings: for Mean # of AEs / # of Participants with AEs / Treatment-Limiting AEs: TOLERABILITY
Protocol: The primary outcome was analyzed using Pearson's chi-square test at the a priori defined significance level of 0.05. Secondary measures of efficacy were analyzed using mixed-effects regression models with robust standard errors to account for the repeated measures on each subject. The primary and secondary measures were compared between memantine versus placebo as well as between those with high versus normal baseline glutamate activity levels. Participants were categorized as having high versus normal glutamate activity levels at baseline using z-scores. The population mean and SD for z-score calculations were derived from healthy control glutamate activity levels (baseline and endpoint). Glutamate activity levels with z-scores≥1 were categorized as high glutamate activity levels, those with z-scores<1 and >−1 were categorized as normal glutamate activity levels and those with z-scores≤−1 were categorized as low glutamate activity levels. Changes in PgACC glutamate activity levels within groups were tested using paired t-tests and changes between groups were tested using two-sample t-tests. We also performed ROC curve analyses to determine the predictive utility of baseline PgACC glutamate activity levels in identifying treatment responders within the memantine and placebo groups. All analyses apart from the analysis of the primary outcome were considered exploratory. Analyses were performed using a modified intent-to-treat analysis set which included all randomized patients who were regarded exposed to study medication (completed at least two weeks of treatment) and had at least one follow-up assessment.
The mixed-effects regression models used to analyze the secondary measures of efficacy predicted the outcome measure from treatment group (memantine versus placebo), study visit (continuous), and the treatment group-by-study visit interaction, which is our test of efficacy. To examine the effect of baseline PgACC glutamate activity level on the response to treatment, we predicted outcomes measures from treatment group, study visit (continuous), PgACC glutamate activity level (continuous), treatment group-by-study visit interaction, glutamate activity level-by-study visit interaction, treatment group-by-glutamate activity level interaction, and treatment group-by-glutamate activity level-by-study visit interaction. All mixed-effects regression models had random intercepts by subject ID, used robust standard errors to account for the repeated measures on each subject, and used an independent covariance structure for the random effects. […] All missing data were assumed to be missing at random.
Effect sizes are presented as standardized mean differences (SMD) for continuous outcomes and odds ratios (OR) for dichotomous outcomes. The SMDs for the difference of the changes in scores over time between memantine and placebo and between high glutamate and normal glutamate were calculated as Cohen's d using the following calculations: the difference in the change scores between the two groups divided by the pooled standard deviation. The SMDs for changes in scores within groups were calculated as Cohen's d using the following calculation: difference in score from baseline to endpoint divided by the pooled standard deviation. For comparisons of memantine versus placebo and high glutamate versus normal glutamate, positive SMDs and ORs>1 indicate better improvement in the memantine group and high glutamate group, respectively. For comparisons of ASD versus healthy controls, positive SMDs indicate lower glutamate activity levels in the ASD group. As defined by Cohen (Statistical Power Analysis for the Behavioral Sciences. 2nd ed. Hillsdale, NJ: Erlbaum. 1988), a SMD=0.2 is interpreted as a small effect size, SMD=0.5 as medium, and SMD=0.8 as large. We considered ORs>2 to be clinically meaningful.

[3] = HIGH glutamate activity levels, MEM N = 10
[4] = NORMAL glutamate activity levels, MEM N = 5
[5] = NORMAL glutamate activity levels, MEM N = 8

Structure (SMILES): CC12CC3CC(C)(C1)CC(N)(C3)C2 [MEM, memantine]
- Mean # of AEs (youth with ASD [1]; Glu Based Sample [MEM] High [N = 10]): 2.4 ± 1.3
- Mean # of AEs (youth with ASD [1]; Glu Based Sample [MEM] Normal [N = 8]): 2.8 ± 1.0
- Early Terminations: Treatment Limiting AEs (youth with ASD [1]; Unselected Sample MEM [N = 21]): Four
- Mean # of AEs (youth with ASD [1]; Unselected Sample MEM [N = 21]): 2.2 ± 1.2
- Participants completed trial (12 weeks) (youth with ASD [1]; Unselected Sample MEM [N = 21]): 16 N
- Severe AEs (youth with ASD [1]; Unselected Sample MEM [N = 21]): Two
- Severe AEs: Headache (youth with ASD [1]; Unselected Sample MEM [N = 21]): 5%
- Severe AEs: Irritability + Agitation (Worsening) (youth with ASD [1]; Unselected Sample MEM [N = 21]): 5%
- ABC-Social Withdrawal MD (youth with ASD [2]; [3]): −8.5 ± 7.6
- ADHD-RS MD (youth with ASD [2]; [3]): −9.9 ± 11.7
- CASI-ANX MD (youth with ASD [2]; [3]): −10.3 ± 5.1
- CDRS-R MD (youth with ASD [2]; [3]): −9.8 ± 11.2
- CGI-1≤2 (youth with ASD [2]; [3]): 9 (90) N (%)
- CY-BOCS-PDD MD (youth with ASD [2]; [3]): −0.5 ± 1.6
- GAF MD (youth with ASD [2]; [3]): 9.1 ± 5.4
- SRS-Autistic Mannerisms MD (youth with ASD [2]; [3]): −10.3 ± 5.3
- SRS-SCI MD (youth with ASD [2]; [3]): −39.8 ± 21.1
- SRS-Social Awareness MD (youth with ASD [2]; [3]): −5.0 ± 4.2
- SRS-Social Cognition MD (youth with ASD [2]; [3]): −8.1 ± 5.8
- SRS-Social Communication MD (youth with ASD [2]; [3]): −17.9 ± 7.7
- SRS-Social Motivation MD (youth with ASD [2]; [3]): −8.8 ± 5.3
- SRS-Total MD (youth with ASD [2]; [3]): −50.1 ± 25.7
- ≥25% ↓↓SRS (youth with ASD [2]; [3]): 9 N
- ≥25% ↓↓SRS + CGI-I ≤ 2 (youth with ASD [2]; [3]): 8 (80) N (%)
- ABC-Social Withdrawal MD (youth with ASD [2]; [4]): −3.6 ± 5.6
- ADHD-RS MD (youth with ASD [2]; [4]): −8.2 ± 7.4
- CASI-ANX MD (youth with ASD [2]; [4]): −2.4 ± 5.2
- CDRS-R MD (youth with ASD [2]; [4]): −8.0 ± 11.8
- CGI-≤2 (youth with ASD [2]; [4]): 3 (60) N (%)
- CY-BOCS-PDD MD (youth with ASD [2]; [4]): −2.0 ± 2.8
- GAF MD (youth with ASD [2]; [4]): 4.6 ± 4.3
- SRS-Autistic Mannerisms MD (youth with ASD [2]; [4]): −1.8 ± 5.1
- SRS-SCI MD (youth with ASD [2]; [4]): −9.2 ± 5.3
- SRS-Social Awareness MD (youth with ASD [2]; [4]): −0.8 ± 1.8
- SRS-Social Cognition MD (youth with ASD [2]; [4]): −2.0 ± 2.6
- SRS-Social Communication MD (youth with ASD [2]; [4]): −2.8 ± 2.7
- SRS-Social Motivation MD (youth with ASD [2]; [4]): −3.0 ± 4.0
- SRS-Total MD (youth with ASD [2]; [4]): −10.6 ± 10.6
- ≥25% WISRS±CGI-1≤2 (youth with ASD [2]; [4]): 0 (0) N (%)
- ≥25% WLSRS (youth with ASD [2]; [4]): 0 (0) N (%)
- Mean # of AEs (youth with ASD [2]; HIGH glutamate activity levels, MEM N = 7): 2.4 ± 1.3
- # of Participants with AEs (youth with ASD [2]; [3]): 7 (70) N (%)
- Treatment-Limiting AEs (youth with ASD [2]; [3]): 0 (0) N (%)
- Mean # of AEs (youth with ASD [2]; NORMAL glutamate activity levels, MEM N = 6): 2.8 ± 1.0
- # of Participants with AEs (youth with ASD [2]; [5]): 4 (50) N (%)
- Treatment-Limiting AEs (youth with ASD [2]; [5]): 2 (25) N (%)
- Association of higher baseline PgACC glutamate activity levels with change scores (SRS Total, SRS-SCI, ABC-Social Withdrawal) (youth with ASD [2]; memantine group): greater change scores
